From patent US9861647B2 (Prelief Inc., priority 2007, dated 2018)
Entries after “also recorded” stand apart in the source; their conditions may differ.

Columns and labels:
[1] = tested on: histamine, leukotriene C4/D4/E4, prostaglandin D2 and E2 in nasal lavage fluid; assay: Mediators (histamine, leukotrienes, prostaglandins) in nasal lavage fluid after intranasal ragweed challenge; type: in vivo, Beagle dogs
Protocol: Ragweed sensitized beagle dogs (n=5) with preexisiting nasal and airway allergic responses were utilized in the animal study described in this Example. Dogs served as their own control and initially were treated with vehicle (sterile water) and then rested for 5 weeks prior to receiving the test compound. […] Based on the aerosol testing only 1.6 mg/dog could be delivered by inhalation during a 15 minute exposure (20 mg/ml solution). In addition, each dog received twice daily an intranasal instillation of 30 mg (2×375 μl of 20 mg/ml in each nostril) given within 30 minutes after the end of the inhalation exposures.
FIG. 1 summarizes the study design for characterizing the effects of CGP on rhinitis symptoms in ragweed sensitized Beagle dogs. The baseline nasal cavity volume was first measured 3 days (day −3) before each of the vehicle and CGP treatments. The dogs were treated with vehicle or CGP (day 0) twice daily with the target dosage described above. Three days into the vehicle or CGP treatment, nasal challenge with ragweed was performed (day 3). Treatment with vehicle or CGP continued during the assessment of rhinitis endpoints, e.g., total treatment duration=6 days (day 0-5) for each of the vehicle and CGP treatments. There were 5 weeks following the first intranasal RW challenge during the vehicle treatment and the CGP treatment.
(§1) Vehicle (sterile water) was given twice daily by inhalation (15 minutes) followed by intranasal instillation of water (2×250 μl in each nostril). […] The test-article and the compound solution were prepared in the morning of each treatment day. Vehicle and test-article were administered by inhalation and intranasal instillation twice a day. Dosing of vehicle or test compound was achieved by utilizing a face mask connected to a jet nebulizer for inhalation delivery followed by intranasal instillation in both nostrils using an Accuspray device.
Rhinitis assessments were conducted using one or more of the following tests. • Nasal cavity geometry (AcR) pre/post antigen challenge in both nares • 1. time 0 (just prior to RW instillation) • 2. at 15, 30, 45, 60, 75, 90 min, 24 h and 48 h post RW challenge • Nasal lavage of both nares at baseline and at 24 h (Day 4) and 48 h (Day 5) post RW instillation and only one side at 15, 30, 45 and 60 min post RW challenge (Day 3) • 1. Release of histamine, leukotrienes and prostaglandins in nasal lavage fluid baseline (prior to compound or RW treatment/challenge), 15, 30, 45, 60 min and 24 h post RW instillation • 2. Nasal lavage cells from the baseline (Day-3), 24 h (Day 4) and 48 h (Day 5) hour lavage were used for determination of inflammatory cell differentials • 3. Excess nasal lavage fluid was frozen for analysis of cytokines. • Cardiovascular readouts (heart rate, O2 saturation, body temperature) throughout nasal congestion measurement.
While under anesthesia a flexible plastic catheter was inserted several centimeters into the dog's nare. The nare was washed with a phosphate buffered saline solution (PBS; 3×5 ml for collection of cells [baseline, 24 and 48 h post RW challenge]; 1×5 ml for collection of fluid for mediators [15, 30, 45, and 60 minutes post RW challenge]).
Total nasal cells were determined using an automatic cell counter. Cells were spun onto slides by cytocentrifugation and stained with a modified Wright-Giemsa stain. At least four hundred inflammatory cells (or less if applicable) were counted and the percentage of specific cell types determined for each animal (slides in duplicates, 200 cells per slide). The first lavage fluid sample (after centrifugation) was frozen separately for mediator analysis. Mediator analysis for histamine, leukotrienes, and prostaglandins were performed according to the kit manufacturer instructions (Immunotech—Beckman Coulter Company #IM2015, Neogen Corporation #406410, Cayman Chemical Company: PGE2—#514010, PGD2—#512011, respectively). […]

[2] = tested on: human subject having asthma; assay: Application of CGP composition to a human subject having asthma; type: in vivo
Description: A CGP composition similar to that described in Example 3, containing about 2% (w/w) CGP, was used in this study. A second human subject, a person having a life history of asthma, participated in this study.
The subject intentionally stopped using Advair Diskus (steroid) for about 2 weeks. Their allergies to molds were triggered by a ‘musty’ indoor environment resulting from several rainy and humid days. The allergies in turn triggered their asthma. The subject had felt a slight reduction in their airflow capacity for a few days, but had withheld use of albuterol inhaler (asthma rescue medication) during the day and only used it for severe wake-ups during the night. The subject had to use albuterol inhaler for three contiguous nights prior to the night described below.
In that night, at about 8:30 PM, the subject was experiencing difficulty breathing and wheezing, which signaled the start of an asthma attack. At about 8:35 PM, the subject applied two sprays of the CGP composition into each nostril and one spray of the CGP composition into their mouth for inhalation. An average spray delivery contained about 200 mg of the composition. […] At about 8:52 PM, the subject did two additional oral inhalations of the composition. At about 8:55 PM, the subject noticed that their wheeze and tightness in chest were relieved about 80% or more. All nasal drips had been sniffed back in. At about 8:58 PM, the subject perceived a gradual improvement and experienced no labor in breathing. At about 9:05 PM, the subject felt better, but desired full relief and wanted to increase breathing capacity. They applied one inhalation of the composition into each nostril; paused to get full breath, then applied two deep oral inhalations of the composition at about 9:07 PM. At about 9:27 PM, the subject felt fine and substantially back to normal. At about 9:37 PM, the subject felt improved. At about 10:16 PM, the subject felt fully (100%) recovered. At about 11:00 PM, the subject felt fine, no worry, and went to bed. […] At about 8:00 AM the next day, the subject felt a little tightness in chest. Instead of using 2 puffs of albuterol to start the day as they normally did, the subject used the CGP composition. They applied two sprays of the composition into each nostril and two sprays of the composition into their mouth for inhalation.

[3] = pH of the nebulizer solution; type: physicochemical; conditions: 20 mg/ml in sterile water
Protocol: as §1
Treatment occurred on Days 0 to 5 (only AM on Day 5). Vehicle and compound were delivered in the morning (8:15-9:10 am) and the afternoon (2:00-3:30 pm). On days when acoustic rhinometry procedures were performed (Days 0), the morning dosing occurred such that the procedures were performed within 1-6 h after dosing. The pH of the compound (as administered for nasal inhalation) was recorded prior to administration. As identified in the aerosol exposure the average pH of the nebulizer solution was 8.85.

[4] = before and after ragweed challenge, vs vehicle, n=5, One Way Anova, Dunnett's posttest

calcium glycerophosphate
histamine levels in nasal lavage fluid [1, 4]: no statistical significance was reached | levels of leukotriene C4/D4/E4 in nasal lavage fluid [1, 4]: no statistical significance was reached | prostaglandin D2 levels in nasal lavage fluid [1, 4]: no statistical significance was reached | prostaglandin E2 levels in nasal lavage fluid [1, 4]: Levels of PGE2 decreased following ragweed challenge; also recorded: no statistical significance was reached | histamine, leukotriene and prostaglandin D2 and E2 levels in nasal lavage fluid ([1]; compound vs vehicle treatment, statistical significance not reached): partially altered | prostaglandin E2 levels normalized to baseline (T0 = 100%) ([1]; vs vehicle, Two Way Anova p<0.009, no significance at individual time points): a greater reduction in PGE2 levels following RW challenge; also recorded: significantly attenuated compared to vehicle treatment | AUC of histamine levels between 0 and 60 min ([1]; vs vehicle, n=5): histamine levels decreased in two of the 5 dogs, no statistical significance was reached | AUC of prostaglandin D2 levels between 0 and 60 min ([1]; vs vehicle, n=5): prostaglandin D2 levels decreased in three dogs and increased in two dogs and no statistical significance was reached | relief of tightness in chest next morning ([2]; about 8:00 AM next day, two sprays each nostril and two sprays into mouth instead of albuterol): felt relief and no need to use the albuterol inhaler | relief at start of an asthma attack ([2]; about 8:40 PM, 5 min after first sprays, composition about 2% (w/w) CGP, one subject): mild relief | wheeze and tightness in chest relieved ([2]; about 8:55 PM, after nasal sprays and oral inhalations from 8:35 PM, about 2% (w/w) CGP): ≥ 80% | subject felt recovered ([2]; about 10:16 PM, first application 8:35 PM, about 2% (w/w) CGP): 100% | night wake-up and inhaler use ([2]; night after the treated attack): no wake-up with shortness of breath and did not use inhaler during the night | average pH of the nebulizer solution [3]: 8.85
